From patent publication US20090111182A1, “Method for Propagation of Plant” (priority 2005, published 2009)

How the values were obtained:
[1] = system: embryogenic callus of the cultivar Petite; assay: Somatic embryo induction in liquid medium (shaken Erlenmeyer flask), effects of proline and glutamic acid; format: cell-based, Spathiphyllum (cultivar Petite); conditions: 0.05 g callus, 40 ml medium, 6 weeks
Method: (§1) MS liquid medium (pH 5.8) containing 1% sucrose, 3% sorbitol, and MES 5 mM was used as basal medium. Proline and glutamic acid were added to the media at the following concentrations. […] The fresh weights the thus induced somatic embryos were measured (Table 1).

[2] = system: embryogenic callus from Double Take; assay: Somatic embryo induction in liquid medium (flask), effects of sugar composition and addition of BA; format: cell-based, Spathiphyllum (cultivar Double Take); conditions: sucrose 0%, sorbitol 3%, fructose 1.1%, BA 0 ppm
Method: as §1
Media with compositions listed in Table 2 were prepared (compositions other than those listed in Table 2 were the same as those of the “somatic embryo induction medium.”).

Structure (SMILES): O=C(O)[C@@H]1CCCN1 [Proline, proline]
- Amount of embryo collected ([1]; proline 3 mM, glutamic acid 0 mM): 3.4 g/flask

Structure (SMILES): O=C(CO)[C@@H](O)[C@H](O)[C@H](O)CO [Fructose, fructose]
- Weight of somatic embryo [2]: 3.8 (g)/flask

Structure (SMILES): N[C@@H](CCC(=O)O)C(=O)O [Glutamic acid, glutamic acid]
- Amount of embryo collected ([1]; proline 0 mM, glutamic acid 3 mM): 3.5 g/flask
